# Measured values as given in PubChem BioAssay (NCI).
#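 96-well plates; 48 h exposure; 5 concentrations. Endpoints by linear interpolation between flanking doses. Not reached: highest tested concentration assigned. Here, GI50 denotes the concentration required for 50% inhibition of growth. TGI denotes the concentration required for complete inhibition of growth.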
# How the values were obtained:
# Assay in all cases: inhibition of tumour cell growth, NCI panel, 48 h
# 786-0 renal = system: 786-0 renal
# A498 renal = system: A498 renal
# A549 NSCLC = system: A549 NSCLC
# ACHN renal = system: ACHN renal
# CAKI-1 renal = system: CAKI-1 renal
# CCRF-CEM leukemia = system: CCRF-CEM leukemia
# COLO 205 colon = system: COLO 205 colon
# DLD-1 colon = system: DLD-1 colon
# DMS 273 small cell lung = system: DMS 273 small cell lung
# EKVX NSCLC = system: EKVX NSCLC
# HCC-2998 colon = system: HCC-2998 colon
# HCT-15 colon = system: HCT-15 colon
# HL-60(TB) leukemia = system: HL-60(TB) leukemia
# HOP-62 NSCLC = system: HOP-62 NSCLC
# HOP-92 NSCLC = system: HOP-92 NSCLC
# HT29 colon = system: HT29 colon
# IGROV1 ovarian = system: IGROV1 ovarian
# K-562 leukemia = system: K-562 leukemia
# KM12 colon = system: KM12 colon
# KM20L2 colon = system: KM20L2 colon
# LOX IMVI melanoma = system: LOX IMVI melanoma
# LXFL 529 NSCLC = system: LXFL 529 NSCLC
# M14 melanoma = system: M14 melanoma
# M19-MEL melanoma = system: M19-MEL melanoma
# MALME-3M melanoma = system: MALME-3M melanoma
# MOLT-4 leukemia = system: MOLT-4 leukemia
# NCI-H23 lung = system: NCI-H23 lung
# NCI-H460 lung = system: NCI-H460 lung
# NCI-H522 lung = system: NCI-H522 lung
# OVCAR-3 ovarian = system: OVCAR-3 ovarian
# OVCAR-4 ovarian = system: OVCAR-4 ovarian
# OVCAR-5 ovarian = system: OVCAR-5 ovarian
# OVCAR-8 ovarian = system: OVCAR-8 ovarian
# RPMI-8226 leukemia = system: RPMI-8226 leukemia
# RXF 393 renal = system: RXF 393 renal
# SF-268 CNS = system: SF-268 CNS
# SF-295 CNS = system: SF-295 CNS
# SF-539 CNS = system: SF-539 CNS
# SK-MEL-2 melanoma = system: SK-MEL-2 melanoma
# SK-MEL-28 melanoma = system: SK-MEL-28 melanoma
# SK-MEL-5 melanoma = system: SK-MEL-5 melanoma
# SK-OV-3 ovarian = system: SK-OV-3 ovarian
# SN12C renal = system: SN12C renal
# SNB-19 CNS = system: SNB-19 CNS
# SNB-75 CNS = system: SNB-75 CNS
# SW-620 colon = system: SW-620 colon
# TK-10 renal = system: TK-10 renal
# U251 CNS = system: U251 CNS
# UACC-257 melanoma = system: UACC-257 melanoma
# UACC-62 melanoma = system: UACC-62 melanoma
# UO-31 renal = system: UO-31 renal
# XF 498 CNS = system: XF 498 CNS
smiles,measurement,setting,value
O=C([CH-]C(=O)C(F)(F)F)c1ccccc1.O=C([CH-]C(=O)C(F)(F)F)c1ccccc1.[O]=[U+2]=[O],GI50,786-0 renal,21.7 µM
same,TGI,786-0 renal,89.4 µM
same,GI50,A498 renal,24.6 µM
same,TGI,A498 renal,74.4 µM
same,GI50,A549 NSCLC,27.4 µM
same,TGI,A549 NSCLC,> 100 µM
same,GI50,ACHN renal,13.6 µM
same,TGI,ACHN renal,80.9 µM
same,GI50,CAKI-1 renal,39 µM
same,TGI,CAKI-1 renal,> 100 µM
same,GI50,CCRF-CEM leukemia,11.4 µM
same,TGI,CCRF-CEM leukemia,> 100 µM
same,GI50,COLO 205 colon,34.5 µM
same,TGI,COLO 205 colon,> 100 µM
same,GI50,DLD-1 colon,7.75 µM
same,TGI,DLD-1 colon,> 100 µM
same,GI50,DMS 273 small cell lung,7.38 µM
same,TGI,DMS 273 small cell lung,> 100 µM
same,GI50,EKVX NSCLC,22.3 µM
same,TGI,EKVX NSCLC,72.9 µM
same,GI50,HCC-2998 colon,14.4 µM
same,TGI,HCC-2998 colon,61.7 µM
same,GI50,HCT-15 colon,7.27 µM
same,TGI,HCT-15 colon,> 100 µM
same,GI50,HL-60(TB) leukemia,15.8 µM
same,TGI,HL-60(TB) leukemia,78.4 µM
same,GI50,HOP-62 NSCLC,15.1 µM
same,TGI,HOP-62 NSCLC,53.9 µM
same,GI50,HOP-92 NSCLC,30.9 µM
same,TGI,HOP-92 NSCLC,95.6 µM
same,GI50,HT29 colon,28.3 µM
same,TGI,HT29 colon,68.2 µM
same,GI50,IGROV1 ovarian,16.5 µM
same,TGI,IGROV1 ovarian,> 100 µM
same,GI50,K-562 leukemia,13.1 µM
same,TGI,K-562 leukemia,> 100 µM
same,GI50,KM12 colon,26 µM
same,TGI,KM12 colon,92.6 µM
same,GI50,KM20L2 colon,19.9 µM
same,TGI,KM20L2 colon,> 100 µM
same,GI50,LOX IMVI melanoma,13 µM
same,TGI,LOX IMVI melanoma,> 100 µM
same,GI50,LXFL 529 NSCLC,7.33 µM
same,TGI,LXFL 529 NSCLC,> 100 µM
same,GI50,M14 melanoma,19.1 µM
same,TGI,M14 melanoma,88.9 µM
same,GI50,M19-MEL melanoma,16.6 µM
same,TGI,M19-MEL melanoma,> 100 µM
same,GI50,MALME-3M melanoma,18.6 µM
same,TGI,MALME-3M melanoma,47.7 µM
same,GI50,MOLT-4 leukemia,19.4 µM
same,TGI,MOLT-4 leukemia,> 100 µM
same,GI50,NCI-H23 lung,4.71 µM
same,TGI,NCI-H23 lung,67.7 µM
same,GI50,NCI-H460 lung,12.6 µM
same,TGI,NCI-H460 lung,90.6 µM
same,GI50,NCI-H522 lung,4.11 µM
same,TGI,NCI-H522 lung,> 100 µM
same,GI50,OVCAR-3 ovarian,18 µM
same,TGI,OVCAR-3 ovarian,56.7 µM
same,GI50,OVCAR-4 ovarian,10.4 µM
same,TGI,OVCAR-4 ovarian,> 100 µM
same,GI50,OVCAR-5 ovarian,64.1 µM
same,TGI,OVCAR-5 ovarian,> 100 µM
same,GI50,OVCAR-8 ovarian,14.1 µM
same,TGI,OVCAR-8 ovarian,93.6 µM
same,GI50,RPMI-8226 leukemia,8.51 µM
same,TGI,RPMI-8226 leukemia,> 100 µM
same,GI50,RXF 393 renal,16.9 µM
same,TGI,RXF 393 renal,45.4 µM
same,GI50,SF-268 CNS,4.53 µM
same,TGI,SF-268 CNS,> 100 µM
same,GI50,SF-295 CNS,20.8 µM
same,TGI,SF-295 CNS,86.5 µM
same,GI50,SF-539 CNS,4.13 µM
same,TGI,SF-539 CNS,> 100 µM
same,GI50,SK-MEL-2 melanoma,28 µM
same,TGI,SK-MEL-2 melanoma,> 100 µM
same,GI50,SK-MEL-28 melanoma,9.2 µM
same,TGI,SK-MEL-28 melanoma,79.5 µM
same,GI50,SK-MEL-5 melanoma,17.8 µM
same,TGI,SK-MEL-5 melanoma,> 100 µM
same,GI50,SK-OV-3 ovarian,51.4 µM
same,TGI,SK-OV-3 ovarian,> 100 µM
same,GI50,SN12C renal,9.1 µM
same,TGI,SN12C renal,> 100 µM
same,GI50,SNB-19 CNS,4.62 µM
same,TGI,SNB-19 CNS,> 100 µM
same,GI50,SNB-75 CNS,28.8 µM
same,TGI,SNB-75 CNS,85.8 µM
same,GI50,SW-620 colon,27.9 µM
same,TGI,SW-620 colon,> 100 µM
same,GI50,TK-10 renal,20.4 µM
same,TGI,TK-10 renal,64.1 µM
same,GI50,U251 CNS,5.61 µM
same,TGI,U251 CNS,> 100 µM
same,GI50,UACC-257 melanoma,27.3 µM
same,TGI,UACC-257 melanoma,> 100 µM
same,GI50,UACC-62 melanoma,12.2 µM
same,TGI,UACC-62 melanoma,87.9 µM
same,GI50,UO-31 renal,5.4 µM
same,TGI,UO-31 renal,> 100 µM
same,GI50,XF 498 CNS,23.8 µM
same,TGI,XF 498 CNS,69.9 µM
